Our source for the IC50 values is patent US11066413B2, “Aminopyrimidine five-membered heterocyclic compound, and intermediate, preparation method, pharmaceutical composition and application thereof” (GUANGZHOU MAXINOVEL PHARMACEUTICALS CO., LTD., priority 2017, dated 2021).

Sequence of hA2A receptor (P29274 whole entry): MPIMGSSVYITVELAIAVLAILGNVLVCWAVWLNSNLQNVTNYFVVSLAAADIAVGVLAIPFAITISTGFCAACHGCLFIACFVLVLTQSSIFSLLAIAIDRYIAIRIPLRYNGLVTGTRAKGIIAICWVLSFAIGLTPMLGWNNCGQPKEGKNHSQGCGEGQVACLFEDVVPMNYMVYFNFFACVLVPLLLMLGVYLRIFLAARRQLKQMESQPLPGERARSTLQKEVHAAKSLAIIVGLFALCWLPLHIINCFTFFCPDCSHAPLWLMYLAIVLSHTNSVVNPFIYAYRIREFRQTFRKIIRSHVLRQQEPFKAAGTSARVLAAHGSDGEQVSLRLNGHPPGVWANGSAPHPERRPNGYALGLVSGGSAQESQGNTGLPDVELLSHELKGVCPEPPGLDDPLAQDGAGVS

This experiment addresses hA2A receptor (Homo sapiens (Human), UniProt P29274). In words: binding affinity IC50 to hA2A receptor ([3H]-CGS 21680 filter binding, Effect Embodiment 2). Particulars: A2A membrane, [3H]-CGS 21680 (final 25 nM), 90 minutes at 25° C. Here is the method: Evaluation experiment of the binding affinity IC50 of the compounds 1-61 to hA2A receptor
40 uL of ULTIMA GOLD scintillation fluid was added to each well and the CPM (count per minute) value was read by TopCount.
In the case of `CN1C(=O)c2c(-c3ccco3)nc(N)nc2C1Cc1ccccc1OC(F)(F)F` (stereo not shown) [Compound 45, 2-amino-7-((2-trifluoromethoxylphenyl)methyl)-4-(furan-2-yl)-6-methyl-5H,6H,7H-pyrrolo[3,4-d]pyrimidin-5-one], the IC50 turned out to be 11.6 nM. In turn, `CN1C(=O)c2c(nc(N)nc2-c2ccco2)C1=Cc1ccc(F)cc1F` [Compound 46, 2-amino-7-((2,4-difluorophenyl)methylene)-4-(furan-2-yl)-6-methyl-5H,6H,7H-pyrrolo[3,4-d]pyrimidin-5-one] displayed an IC50 of 8.7 nM. Turning to `CN1C(=O)c2c(-c3ccco3)nc(N)nc2C1Cc1ccc(F)cc1F` (stereo not shown) [Compound 47, 2-amino-7-((2,4-difluorophenyl)methyl)-4-(furan-2-yl)-6-methyl-5H,6H,7H-pyrrolo[3,4-d]pyrimidin-5-one], the IC50 is 16.4 nM. The value for `Cc1ccc(-c2nc(N)nc3c2C(=O)N(C)C3=Cc2ccc(F)cc2F)o1` [Compound 48, 2-amino-7-((2,4-difluorophenyl)methylene)-4-(5-methylfuran-2-yl)-6-methyl-5H,6H,7H-pyrrolo[3,4-d]pyrimidin-5-one] was 13.2 nM; that for `Cc1ccc(-c2nc(N)nc3c2C(=O)N(C)C3Cc2ccc(F)cc2F)o1` (stereo not shown) [Compound 49, 2-amino-7-((2,4-difluorophenyl)methyl)-4-(5-methylfuran-2-yl)-6-methyl-5H,6H,7H-pyrrolo[3,4-d]pyrimidin-5-one] was 32.1 nM; that for `Cc1ccc(-c2nc(N)nc3c2C(=O)N(C)C3=Cc2ccccc2F)o1` [Compound 50, 2-amino-7-((2-fluorophenyl)methylene)-4-(5-methylfuran-2-yl)-6-methyl-5H,6H,7H-pyrrolo[3,4-d]pyrimidin-5-one] was 7.3 nM. On to `Cc1ccc(-c2nc(N)nc3c2C(=O)N(C)/C3=C\c2ccccc2C(F)(F)F)o1` [Compound 51, 2-amino-7-((2-(trifluoromethyl)phenyl)methylene)-4-(5-methylfuran-2-yl)-6-methyl-5H,6H,7H-pyrrolo[3,4-d]pyrimidin-5-one], for which the 50% inhibitory concentration (IC50) was determined as 4.7 nM.

As for `Cc1ccc(-c2nc(N)nc3c2C(=O)N(C)C3=Cc2ccccc2OC(F)(F)F)o1` [Compound 52, 2-amino-7-((2-(trifluoromethoxyl)phenyl)methylene)-4-(5-methylfuran-2-yl)-6-methyl-5H,6H,7H-pyrrolo[3,4-d]pyrimidin-5-one], the IC50 was 3.6 nM. The result for `Cc1ccc(-c2nc(N)nc3c2C(=O)N(C)C3Cc2ccccc2OC(F)(F)F)o1` (stereo not shown) [Compound 53, 2-amino-7-((2-(trifluoromethoxyl)phenyl)methyl)-4-(5-methylfuran-2-yl)-6-methyl-5H,6H,7H-pyrrolo[3,4-d]pyrimidin-5-one] reads 56.2 nM; that for `Cc1ccc(-c2nc(N)nc3c2C(=O)N(C)C3Cc2ccccc2C(F)(F)F)o1` (stereo not shown) [Compound 54, 2-amino-7-((2-(trifluoromethyl)phenyl)methyl)-4-(5-methylfuran-2-yl)-6-methyl-5H,6H,7H-pyrrolo[3,4-d]pyrimidin-5-one], 34.7 nM. Turning to `Cc1ccc(-c2nc(N)nc3c2C(=O)N(C)C3Cc2ccccc2F)o1` (stereo not shown) [Compound 55, 2-amino-7-((2-fluorophenyl)methyl)-4-(5-methylfuran-2-yl)-6-methyl-5H,6H,7H-pyrrolo[3,4-d]pyrimidin-5-one], the IC50 was found to be 29.3 nM. `Cc1ccc(-c2nc(N)nc3c2C(=O)N(C)C3=Cc2ccc(F)cc2C(F)(F)F)o1` [Compound 56, 2-amino-7-((2-(trifluoromethyl)-4-fluorophenyl)methylene)-4-(5-methylfuran-2-yl)-6-methyl-5H,6H,7H-pyrrolo[3,4-d]pyrimidin-5-one] had an IC50 of 3.4 nM.

`Cc1ccc(-c2nc(N)nc3c2C(=O)N(C)C3Cc2ccc(F)cc2C(F)(F)F)o1` (stereo not shown) [Compound 57, 2-amino-7-((2-(trifluoromethyl)-4-fluorophenyl)methyl)-4-(5-methylfuran-2-yl)-6-methyl-5H,6H,7H-pyrrolo[3,4-d]pyrimidin-5-one] had an IC50 of 152 nM.

What is called IC50 is the concentration at which inhibition is half-maximal.
